One compound from patent US20190247376A1, “NICOTINIC ACETYLCHOLINE RECEPTOR AGONIST ATTENUATES ILC2-DEPENDENT AIRWAY HYPERREACTIVITY” (University of Southern California, priority 2016, published 2019) can be followed below.

Common to all, as to format: in vivo, mouse
The test system of assay [1] is BALB/cByJ and α7nAChR−/− mice. The experiment in a line: IL-33-induced AHR in WT and α7nAChR-deficient mice. To be noted: rm-IL-33, agonist 125 μg days 1-3. On the procedure: (§1) FIGS. 4A-4E: α7nAChR expression is critical for GTS-21 action on ILC2s in vivo. BALB/cByJ and α7nAChR^−/− mice were intranasally challenged with rm-IL-33 or PBS, and also given α7nAChR agonist (125 μg) or PBS on days 1-3. Measurement of lung function and analysis of BAL followed on day 4. (FIG. 4A) Lung resistance. (FIG. 4B) Total number of eosinophils in BALF. (FIG. 4C) Rag^−/− GC^−/− mice were received ILC2s from either WT or α7nAChR^−/− mice. After the adoptive transfer, mice were intranasally challenged with rm-IL-33 or PBS; they also received α7nAChR agonist (125 μg) or PBS on days 1-3. Measurement of lung function and analysis of BAL followed on day 4, according to scheme 4C. (FIG. 4D) Lung resistance. (FIG. 4E) Total number of eosinophils in BALF. Data are representative of at least three independent experiments and are presented as means±SEM (n=4; Student's test ***, p<0.001, WT IL-33+α7nAChR agonist vs. α7nAChR^−/− IL-33+α7nAChR agonist).
To assess whether the previously observed effects of GTS-21 are due to its actions on the α7nAChR, Applicants challenged WT and α7nAChR-deficient mice with or without rm-IL-33, and with or without α7nAChR agonist, for three consecutive days (FIGS. 4A-4B). As expected, in the WT mice, the agonist repressed IL-33-induced AHR and eosinophilic infiltration.
(§2) Mice were intranasally (i.n.) administered carrier-free recombinant mouse IL-33 (BioLegend, San Diego Calif., 0.5 µg per mouse in 50 µL) with or without […] of α7nAChR agonist (kindly provided by Lin Chen) on three consecutive days. Mice were intranasally (i.n.) administered carrier-free recombinant mouse IL-25 (BioLegend, San Diego Calif., 5 µg per mouse in 50 µL) with or without […] of α7nAChR agonist on three consecutive days. For Alternaria alternata experiments, mice were i.n. administered Alternaria alternata (Greer Labs, Lenoir, N.C., 100 μg per mouse in 50 μL) with or without 125 µg α7nAChR agonist for four consecutive days. One day after the last challenge, mice were anesthetized using i.p. injection of ketamine (10 mg mL^−1) and xylazine (1 mg mL^−1). Measurements of airway resistance and dynamic compliance were conducted with the Fine Pointe RC System (Buxco Research Systems, Wilmington, N.C.), in which mice were mechanically ventilated using a modified version as previously described^36,67. Mice were sequentially challenged with aerosolized PBS (baseline), followed by increasing doses of methacholine. Maximum lung resistance (RL) and minimum compliance (Cdyn) values were recorded during a three-minute period after each methacholine challenge.

A further assay has as its system Rag2−/− mice. The experiment in a line: Alternaria alternata-induced AHR in Rag2-deficient mice. To be noted: four consecutive days.
From the text: FIGS. 6A-6C: α7nAChR agonist inhibits Alternaria-induced AHR. (FIG. 6A) Rag2-deficient mice intranasally received an extract of Alternaria alternata with or without α7nAChR agonist on days 1-4 according to scheme FIG. 6A. Measurement of lung function and BALF analysis followed on day 5. (FIG. 6B) Lung resistance. (FIG. 6C) Total number of eosinophils in BALF. Total number of lung ILC2s. Data are representative of at least four independent experiments and are presented as means±SEM (n=4; Student's t test *, p<0.05; ***, p<0.001).
It has been previously reported that Alternaria alternata can induce AHR^40. Applicants further explored the anti-inflammatory effects of α7nAChR agonist in ILC2-mediated AHR with this clinically relevant allergen. Rag2^−/− mice were i.n. administered Alternaria alternata extract with or without α7nAChR agonist for four consecutive days (FIG. 6A). […] Accordingly, the number of eosinophils in BALF and lung ILC2s were increased in Alternaria-treated mice. Meanwhile, α7nAChR agonist treatment abolished eosinophils and ILC2s in the lung (FIG. 6C).
as §2, with “Measurements of airway resistance and dynamic compliance were conducted with the Fine Pointe RC System (Buxco Research Systems, Wilmington, N.C.), in which mice were mechanically ventilated using a modified version as previously described^36,67. Mice were sequentially challenged with aerosolized PBS (baseline), followed by increasing doses of methacholine.” left out

The next assay deals with Rag2−/− GC−/− mice. Put plainly: IL-33-induced AHR in Rag2−/− GC−/− mice after adoptive transfer of WT or α7nAChR-deficient ILC2s. To be noted: IL-33, agonist 125 μg days 1-3. On the procedure: as §1
Given that a variety of cells participate in allergic inflammation, Applicants wanted to investigate the effect of the agonist specifically on ILC2s. Rag2^−/− GC^−/− mice lack not only B and T cells, but NK cells and ILC2s as well. Using methods previously described by our laboratory^36, Applicants adoptively transferred WT or α7nAChR-deficient ILC2s into these Rag2^−/− GC^−/− mice, and then treated them with IL-33, with or without α7nAChR agonist. As expected, Applicants observed a decrease of AHR and of eosinophil recruitment in mice injected with WT ILC2s in response to α7nAChR treatment (FIGS. 4C-4E).
as §2, with “Mice were sequentially challenged with aerosolized PBS (baseline), followed by increasing doses of methacholine.” left out

Where [2] appears, read: i.n. Alternaria alternata extract, agonist.
The mark [3] stands for this setting: Rag2−/− GC−/− mice injected with WT ILC2s.
Setting [4] is: Rag2−/− GC−/− mice injected with α7nAChR-deficient ILC2s.

SMILES strings stand for the structures.

With `COc1ccc(/C=C2\CCCN=C2c2cccnc2)c(OC)c1` [GTS-21, 3-[(3E)-3-[(2,4-dimethoxyphenyl)methylidene]-5,6-dihydro-4H-pyridin-2-yl]pyridine], in assay [1] (WT mice), the “IL-33-induced AHR” value is listed as “repressed” and the eosinophilic infiltration result is “repressed”. In assay [1] (α7nAChR-deficient mice), the “IL-33-induced AHR” value is listed as “affected neither AHR nor eosinophilia” and the eosinophilia result is reported as “affected neither AHR nor eosinophilia”. In addition, the “AHR (lung resistance)” value in the assay on Rag2−/− mice (i.n. Alternaria alternata extract 100 μg, agonist 125 μg) is given as “did not develop AHR”. Besides, in the assay on Rag2−/− mice (setting [2]), the “eosinophils in BALF” value was “abolished” and the “lung ILC2s” value is recorded as “abolished”. For the same compound, in the assay on Rag2−/− GC−/− mice (setting [3]), the AHR entry is reported as “decrease” and the eosinophil recruitment result is reported as “decrease”. In the assay on Rag2−/− GC−/− mice (setting [4]), the AHR entry is reported as “affected neither AHR nor eosinophilia” and the eosinophilia result is “affected neither AHR nor eosinophilia”.
